Assay in all cases: microbe, parasite or virus in culture
One assay has as its system M. avium hominissuis. More on the design: Whole-cell growth inhibition, dose-response MIC (MIC90) by resazurin microtiter assay (REMA), fluorescence read-out. The note with it: Mycobacterium avium.
A further assay deals with T1, M. tuberculosis Erdman.
T1 construct: Erdman
More on the design: Whole-cell growth inhibition, dose-response MIC (MIC90) by resazurin microtiter assay (REMA), fluorescence read-out. The settings on record: Mycobacterium tuberculosis, ERDMAN.

For the next assay, the system named is E. coli. More on the design: Whole-cell growth inhibition, dose-response MIC (MIC90) by resazurin microtiter assay (REMA), fluorescence read-out. The settings on record: Escherichia coli.
For the next assay, the system named is B. cereus. More on the design: Whole-cell growth inhibition, dose-response MIC (MIC90) by resazurin microtiter assay (REMA), fluorescence read-out. The settings on record: Bacillus cereus.
The subject of another assay is T2, M. tuberculosis H37Rv.
T2 construct: H37Rv
Also noted: Whole-cell growth inhibition, dose-response MIC (MIC90) by resazurin microtiter assay (REMA), fluorescence read-out. The settings on record: Mycobacterium tuberculosis, H37RV.

Another assay has as its system M. abscessus. More on the design: Whole-cell growth inhibition, dose-response MIC (MIC90) by resazurin microtiter assay (REMA), fluorescence read-out. The settings on record: Mycobacteroides abscessus.
For a further assay, the system named is M. avium intracellulaire. More on the design: Whole-cell growth inhibition, dose-response MIC (MIC90) by resazurin microtiter assay (REMA), fluorescence read-out. The note with it: Mycobacterium avium.
A further assay concerns C. glutamicum. More on the design: Whole-cell growth inhibition, dose-response MIC (MIC90) by resazurin microtiter assay (REMA), fluorescence read-out. The note with it: Corynebacterium glutamicum.
Another assay concerns P. aeruginosa. Also noted: Whole-cell growth inhibition, dose-response MIC (MIC90) by resazurin microtiter assay (REMA), fluorescence read-out. The note with it: Pseudomonas aeruginosa.
In assay [1] the test system is T3, Mycobacteroides abscessus subsp. massiliense MT15_1748.
T3 construct: MT15_1748
More on the design: species or system M. abscessus; Resazurin microtiter assay (REMA), fluorescence; MIC at 90% growth inhibition from Gompertz fit. The note with it: 48 h, rough morphotype. How it is done:
(§1) MIC values were determined using the resazurin microtiter assay (REMA). Cultures were grown to log phase (OD600 of 0.4–0.8) and diluted to OD600 of 0.005. Drugs were prepared in two-fold serial dilutions in 96-well plates with 90 μL of bacteria per well to a final volume of 100 μL. Plates were incubated at 37°C until drug-free wells were turbid (2 days for M. abscessus). Ten μL of resazurin (0.025% wt/vol) was added to each well. Once the drug-free wells turned pink (one doubling time), the fluorescence (ex/em 560nm/590nm) was measured using an Infinite F200 Tecan plate reader. Fluorescence intensities were converted to % viable cells relative to drug-free conditions and fit to the Gompertz equation using GraphPad Prism version 9. MIC values at 90% growth inhibition were determined from the nonlinear regression Gompertz equation. Next, we tested the in vitro activity of EPT against a panel of M. abscessus clinical isolates belonging to the three subspecies of the M. abscessus complex (M. abscessus, M. massiliense, and M. bolletii) with smooth and rough colony morphologies and with different drug susceptibility profiles to various antibiotics. There was no loss in activity against clinical isolates (range of 0.014–0.046 μg/mL) nor different morphologies (S2 Table). To determine the spectrum of activity of EPT, we curated a panel of various mycobacteria and representative gram-positive and gram-negative bacteria. […] Mycobacteria strains were grown in rolling [compound left out] culture at 37°C in Middlebrook 7H9 (Difco) supplemented with 10% albumin dextrose catalase (ADC), 0.2% glycerol, and 0.05% Tween 80 (7H9 complete) or on 7H10 agar plates supplemented with 10% oleic acid ADC and 0.5% glycerol at 37°C. When mentioned, the carbon source was modified from glycerol to acetate or the detergent Tween 80 was removed from the media. Bacillus cereus (clinical isolate), Corynebacterium glutamicum (ATCC 13032), Escherichia coli, and Pseudomonas aeruginosa PAO1 were grown in LB broth. HepG2 cells (ATCC HB-8065) were grown in Dulbecco’s modified Eagle’s medium (DMEM) with phenol red (from Gibco) supplemented with 10% fetal bovine serum at 37°C with 5% CO2.

Assay [2] concerns T4, Mycobacteroides abscessus subsp. bolletii AV.
T4 construct: AV
Also noted: species or system M. abscessus; Resazurin microtiter assay (REMA), fluorescence; MIC at 90% growth inhibition from Gompertz fit. The note with it: 48 h, smooth morphotype. How it is done:
as §1

In assay [3] the test system is T5, Mycobacteroides abscessus subsp. abscessus MT16_6490.
T5 construct: MT16_6490
Also noted: species or system M. abscessus; Resazurin microtiter assay (REMA), fluorescence; MIC at 90% growth inhibition from Gompertz fit. The settings on record: 48 h, smooth morphotype. How it is done: as §1

Assay [4] has as its system T6, Mycobacteroides abscessus subsp. massiliense MT15_1749.
T6 construct: MT15_1749
Also noted: species or system M. abscessus; Resazurin microtiter assay (REMA), fluorescence; MIC at 90% growth inhibition from Gompertz fit. The settings on record: 48 h, rough morphotype. How it is done: as §1

The subject of assay [5] is T7, Mycobacteroides abscessus subsp. abscessus ATCC 19977.
T7 construct: ATCC 19977
Also noted: species or system M. abscessus; Resazurin microtiter assay (REMA), fluorescence; MIC at 90% growth inhibition from Gompertz fit. The note with it: ATCC19977, 48 h, rough morphotype. How it is done: as §1

Assay [6] has as its system T8, Mycobacteroides abscessus subsp. abscessus MT16_1065.
T8 construct: MT16_1065
More on the design: species or system M. abscessus; Resazurin microtiter assay (REMA), fluorescence; MIC at 90% growth inhibition from Gompertz fit. The settings on record: 48 h, smooth morphotype. How it is done:
as §1

Assay [7] relates to T9, Mycobacteroides abscessus subsp. bolletii Paris 167.
T9 construct: Paris 167
Also noted: species or system M. abscessus; Resazurin microtiter assay (REMA), fluorescence; MIC at 90% growth inhibition from Gompertz fit. The note with it: 48 h, rough morphotype. How it is done:
as §1

Molecules are shown by their SMILES. In brackets after ≈: the same amount, converted by molar mass. Read-outs that look alike come from different tables or passages of the source.

For the compound `NCC[C@H](O)C(=O)N[C@@H]1C[C@H](N)[C@@H](O[C@H]2O[C@H](CN)[C@@H](O)[C@H](O)[C@H]2O)[C@H](O)[C@H]1O[C@H]1O[C@H](CO)[C@@H](O)[C@H](N)[C@H]1O` [Amikacin], the MIC is 5.6 µg/mL (≈ 9.56 µM) in the assay on M. avium hominissuis (read-out: MIC (µg/mL) / AMK); 0.48 µg/mL (≈ 0.82 µM) in the assay on M. tuberculosis Erdman (read-out: MIC (µg/mL) / AMK); 0.15 µg/mL (≈ 0.256 µM) in the assay with E. coli (read-out: MIC (µg/mL) / AMK); 64 µg/mL (≈ 109 µM) with B. cereus (read-out: MIC (µg/mL) / AMK); 0.3 µg/mL (≈ 0.512 µM) in the assay on M. tuberculosis H37Rv (read-out: MIC (µg/mL) / AMK); 4.8 µg/mL (≈ 8.2 µM) in the assay on M. abscessus (read-out: MIC (µg/mL) / AMK). Also, the MIC turned out to be 3.8 µg/mL (≈ 6.49 µM) in the assay with M. avium intracellulaire (read-out: MIC (µg/mL) / AMK); 0.064 µg/mL (≈ 0.109 µM) in the assay on C. glutamicum (read-out: MIC (µg/mL) / AMK); 0.22 µg/mL (≈ 0.376 µM) with P. aeruginosa (read-out: MIC (µg/mL) / AMK); 14 µg/mL (≈ 23.9 µM) in [1] (read-out: MIC AMK); 7 µg/mL (≈ 12 µM) in assay [2] (read-out: MIC AMK); 5.7 µg/mL (≈ 9.73 µM) in [3] (read-out: MIC AMK). For the same compound, the MIC was 8.8 µg/mL (≈ 15 µM) in assay [4] (read-out: MIC AMK), 2.4 µg/mL (≈ 4.1 µM) in [5] (read-out: MIC AMK) and 2.1 µg/mL (≈ 3.59 µM) in assay [6] (read-out: MIC AMK).

Consider `COc1nc2ccc(Br)cc2cc1[C@@H](c1ccccc1)[C@@](O)(CCN(C)C)c1cccc2ccccc12` [Bedaquiline], for which the MIC in the assay with M. avium hominissuis (read-out: MIC (µg/mL) / BDQ) was 0.038 µg/mL (≈ 0.0684 µM); in the assay on M. tuberculosis Erdman (read-out: MIC (µg/mL) / BDQ), 0.061 µg/mL (≈ 0.11 µM); with E. coli (table prints MIC, main text calls the EPT values MIC90, read-out: MIC (µg/mL) / BDQ), > 7.8 µg/mL; in the assay with B. cereus (read-out: MIC (µg/mL) / BDQ), > 7.8 µg/mL; in the assay with M. tuberculosis H37Rv (read-out: MIC (µg/mL) / BDQ) it was 0.26 µg/mL (≈ 0.468 µM); with M. abscessus (read-out: MIC (µg/mL) / BDQ), 0.67 µg/mL (≈ 1.21 µM). Further, the MIC is 0.014 µg/mL (≈ 0.0252 µM) in the assay on M. avium intracellulaire (read-out: MIC (µg/mL) / BDQ); > 7.8 µg/mL with C. glutamicum (read-out: MIC (µg/mL) / BDQ); > 7.8 µg/mL in the assay on P. aeruginosa (read-out: MIC (µg/mL) / BDQ); 0.23 µg/mL (≈ 0.414 µM) in assay [1] (read-out: MIC BDQ); 1.3 µg/mL (≈ 2.34 µM) in assay [2] (read-out: MIC BDQ); 0.83 µg/mL (≈ 1.49 µM) in [3] (read-out: MIC BDQ). In addition, the MIC in assay [4] (read-out: MIC BDQ) was determined as 0.4 µg/mL (≈ 0.72 µM); in assay [5] (read-out: MIC BDQ), 0.27 µg/mL (≈ 0.486 µM); in [6] (read-out: MIC BDQ), 0.36 µg/mL (≈ 0.648 µM); in [7] (read-out: MIC BDQ), 0.39 µg/mL (≈ 0.702 µM).

Turning to `CO[C@@]1(NC(=O)Cc2cccs2)C(=O)N2C(C(=O)O)=C(COC(N)=O)CS[C@@H]21` [Cefoxitin], the MIC with M. avium hominissuis (read-out: MIC (µg/mL) / CFX) is 4.7 µg/mL (≈ 11 µM); with M. tuberculosis Erdman (read-out: MIC (µg/mL) / CFX) it was > 98 µg/mL; in the assay with E. coli (read-out: MIC (µg/mL) / CFX) it was 4 µg/mL (≈ 9.36 µM); in the assay on B. cereus (read-out: MIC (µg/mL) / CFX), > 98 µg/mL; in the assay on M. tuberculosis H37Rv (read-out: MIC (µg/mL) / CFX), > 98 µg/mL; with M. abscessus (read-out: MIC (µg/mL) / CFX) it was 12 µg/mL (≈ 28.1 µM). Also, the MIC in the assay on M. avium intracellulaire (read-out: MIC (µg/mL) / CFX) is 0.42 µg/mL (≈ 0.983 µM); with C. glutamicum (read-out: MIC (µg/mL) / CFX), 98 µg/mL (≈ 229 µM); in the assay on P. aeruginosa (read-out: MIC (µg/mL) / CFX), > 98 µg/mL; in [1] (read-out: MIC CFX), 26 µg/mL (≈ 60.8 µM); in assay [2] (read-out: MIC CFX), 15 µg/mL (≈ 35.1 µM); in assay [3] (read-out: MIC CFX), 13 µg/mL (≈ 30.4 µM). Moreover, the MIC is 16 µg/mL (≈ 37.4 µM) in assay [4] (read-out: MIC CFX), 13 µg/mL (≈ 30.4 µM) in [6] (read-out: MIC CFX) and 16 µg/mL (≈ 37.4 µM) in assay [7] (read-out: MIC CFX).

On to `CO[C@H]1/C=C/O[C@@]2(C)Oc3c(C)c(O)c4c(O)c(c(/C=N/N5CCN(C)CC5)c(O)c4c3C2=O)NC(=O)/C(C)=C\C=C\[C@H](C)[C@H](O)[C@@H](C)[C@@H](O)[C@@H](C)[C@H](OC(C)=O)[C@@H]1C` [Rifampicin], for which the MIC is 0.063 µg/mL (≈ 0.0766 µM) with M. avium hominissuis (read-out: MIC (µg/mL) / RIF); 0.0065 µg/mL (≈ 0.0079 µM) in the assay on M. tuberculosis Erdman (read-out: MIC (µg/mL) / RIF); 3.9 µg/mL (≈ 4.74 µM) in the assay with E. coli (read-out: MIC (µg/mL) / RIF); < 0.063 µg/mL with B. cereus (read-out: MIC (µg/mL) / RIF); 0.0063 µg/mL (≈ 0.00766 µM) with M. tuberculosis H37Rv (read-out: MIC (µg/mL) / RIF); 9.1 µg/mL (≈ 11.1 µM) with M. abscessus (read-out: MIC (µg/mL) / RIF). The MIC with M. avium intracellulaire (read-out: MIC (µg/mL) / RIF) was 0.063 µg/mL (≈ 0.0766 µM); in the assay on C. glutamicum (read-out: MIC (µg/mL) / RIF) it was < 0.063 µg/mL; in the assay with P. aeruginosa (read-out: MIC (µg/mL) / RIF), 15 µg/mL (≈ 18.2 µM); in assay [2] (read-out: MIC RIF), > 24 µg/mL; in assay [3] (read-out: MIC RIF), > 24 µg/mL; in assay [4] (read-out: MIC RIF), 6.7 µg/mL (≈ 8.14 µM). Also, the MIC in assay [5] (read-out: MIC RIF) is 1.8 µg/mL (≈ 2.19 µM); in assay [6] (read-out: MIC RIF) it was > 24 µg/mL; in [7] (read-out: MIC RIF), 7.4 µg/mL (≈ 8.99 µM).

The values above are taken from publication PMC8535176, “Efficacy of epetraborole against Mycobacterium abscessus is increased with norvaline” (PLoS Pathogens, 2021).
